The source of these data is patent US20230105212A1, “BIPHENYL DERIVATIVE INHIBITOR, PREPARATION METHOD THEREFOR AND USE THEREOF” (SHANGHAI HANSOH BIOMEDICAL CO., LTD., priority 2020, published 2023).

In one assay the target is T1, human PD-L1 protein (Homo sapiens, UniProt Q9NZQ7).
T1 construct: purchased Acro Biosystems PD1-H5229
The experiment in a line: Thermal shift: melting temperature of PD-L1 protein. The assay is classed as binding. The note with it: read-out: ΔTm (° C.). The method, then:
Test Embodiment 4. Test of Combination of the Compounds of the Present Disclosure to Improve the Stability (Melting Temperature) of PD-L1 Protein Experimental purpose: To test the ability of compounds to enhance the stability of PD-L1 protein and increase the melting temperature of the protein. Experimental method: […] A solution containing […] HEPES, SYPRO Orange, and 150 mM NaCl was prepared as experimental buffer, and human PD-L1 protein was added at a final concentration of 2 μM. […] PCR tube was put into the PCR machine, and the melt curve function was selected to detect the melting temperature of PD-L1 protein in different treatment groups (heated from 25° C. to 95° C., 0.03° C./s). The experimental data file of the PCR instrument was imported into the thermal shift software to obtain the melting temperature (Tm) of each treatment group, and the Tm of the DMSO vehicle control group was subtracted to obtain the change value (ΔTm) of the melting temperature, as shown in the following table: […]

In a further assay the target is T2, human PD-1/PD-L1 binding (Homo sapiens, UniProt Q9NZQ7).
T2 construct: PD-L1-His protein (19 to 238 amino acids) (Abcam #ab167713); purchased Abcam (PD-L1-His); R&D (PD-1-Fc) ab167713; 1086-PD
T2 sequence (Q9NZQ7 19-238): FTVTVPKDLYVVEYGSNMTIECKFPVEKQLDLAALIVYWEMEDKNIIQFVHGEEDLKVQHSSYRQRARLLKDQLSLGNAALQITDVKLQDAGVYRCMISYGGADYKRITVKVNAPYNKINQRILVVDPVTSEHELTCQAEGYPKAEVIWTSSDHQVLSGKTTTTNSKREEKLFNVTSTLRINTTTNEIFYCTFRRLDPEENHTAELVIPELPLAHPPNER
In words: Inhibition of human PD-1/PD-L1 binding (TR-FRET/HTRF). The settings on record: TR-FRET, PD-L1-His and PD-1-Fc; read-out: PD-1/PD-L1 binding IC50. The method, boiled down:
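PD-L1-His (aa 19–238, diluted to 10 nM) and PD-1-Fc (aa 25–167, diluted to 20 nM) incubated with compounds (10 μM or 1 μM top, 3-fold, 11 doses) 60 min at room temperature, then anti-6HIS Eu cryptate/anti-human IgG-XL665 added for 3 h RT or overnight 4 °C. HTRF 665/620 nm ratio gave inhibition and IC50.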

Assay [1] addresses T3, PD-L1 protein on the surface of MC38-hPDL1 tumor cells (Homo sapiens, UniProt Q9NZQ7).
T3 construct: expressed in transfected cells; host or cells: MC38-hPDL1 (mouse colon cancer cells)
In words: Induction of endocytosis of PD-L1 on the surface of tumor cells (flow cytometry). The class given is cell-based. The settings on record: 16 hours incubation; for Emax: MC38-hPDL1 cells, read-out: MC38 maximum endocytosis rate; for IC50: inducing endocytosis of PD-L1, MC38-hPDL1 cells, read-out: MC38 IC50. Put shortly:
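IC50 comes from nonlinear fits of endocytosis rate, calculated from the loss of surface PE-anti-CD274 flow signal relative to vehicle. Cells were MC38 mouse colon cancer cells engineered to express high human PD-L1. Compound exposure lasted 16 h at 37 °C, 5% CO2.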
A general note: Flow cytometry measures light scatter and fluorescence of single cells or particles in a stream.

Where [2] appears, read: compound 10 μM, PD-L1 protein 2 μM, Tm minus DMSO vehicle control.

Each structure is given as a SMILES string. Read-outs that look alike come from different tables or passages of the source.

T3 sequence (Q9NZQ7 19-290): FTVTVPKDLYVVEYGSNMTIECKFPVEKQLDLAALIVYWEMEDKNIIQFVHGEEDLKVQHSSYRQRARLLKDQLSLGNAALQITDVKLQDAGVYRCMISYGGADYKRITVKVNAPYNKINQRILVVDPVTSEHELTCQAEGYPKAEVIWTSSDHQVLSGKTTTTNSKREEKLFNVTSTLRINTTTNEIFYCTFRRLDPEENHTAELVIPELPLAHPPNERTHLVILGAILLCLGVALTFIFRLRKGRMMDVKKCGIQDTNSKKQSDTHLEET
T1 sequence (Q9NZQ7 19-238 limits assumed): as the sequence (Q9NZQ7 19-238) above

As to `COc1nc(-c2cccc(-c3cccc(NC(=O)c4nc5c(n4C)CCN(C)C5)c3Cl)c2Cl)ccc1CN1CC(C(=O)O)C1` [Embodiment 135, 1-((6-(2,2′-Dichloro-3′-(1,5-dimethyl-4,5,6,7-tetrahydro-1H-imidazo[4,5-c]pyridine-2-carboxamido)-[1,1′-biphenyl]-3-yl)-2-methoxypyridin-3-yl)methyl)azetidine-3-carboxylic Acid], the ΔTm (commonly the shift of the melting midpoint relative to a reference) at 10 µM at human PD-L1 protein (setting [2]) stood at 16.7 °C. Further, the IC50 at human PD-1/PD-L1 binding was 1.2 nM; in assay [1] it was 3.1 nM. The Emax in assay [1] is 98%.

Consider `COc1nc(-c2cccc(-c3cccc(NC(=O)c4nc5c(n4C)CCN(C)C5)c3Cl)c2Cl)ccc1CN1CC2(CC(O)C2)C1` [Embodiment 185, N-(2,2′-Dichloro-3′-(5-((6-hydroxy-2-azaspiro[3.3]heptan-2-yl)methyl)-6-methoxypyridin-2-yl)-[1,1′-biphenyl]-3-yl)-1,5-dimethyl-4,5,6,7-tetrahydro-1H-imidazo[4,5-c]pyridine-2-carboxamide], for which, on human PD-L1 protein (setting [2]), the ΔTm at 10 µM worked out at 20.9 °C. Further, the IC50 amounted to 5.3 nM on human PD-1/PD-L1 binding and 0.7 nM in assay [1]. For the same molecule, the Emax in assay [1] stood at 97%.

On to `COc1nc(-c2cccc(-c3cccc(NC(=O)c4nc5c(n4C)CCN(C)C5)c3Cl)c2Cl)ccc1CN1CC2(CCN(C(C)=O)CC2)C1` [Embodiment 194, N-(3′-(5-((7-Acetyl-2,7-diazaspiro[3.5]nonan-2-yl)methyl)-6-methoxypyridin-2-yl)-2,2′-dichloro-[1,1′-biphenyl]-3-yl)-1,5-dimethyl-4,5,6,7-tetrahydro-1H-imidazo[4,5-c]pyridine-2-carboxamide], for which the ΔTm at 10 µM on human PD-L1 protein (setting [2]) was 13.2 °C. Also, the IC50 at human PD-1/PD-L1 binding was 7.9 nM. The Emax in assay [1] stood at 96%.

Take `CCn1c(C(=O)Nc2cccc(-c3cccc(-c4ccc(CN5CC6(C5)CN(C(C)=O)C6)c(OC)n4)c3Cl)c2Cl)nc2c1CCN(C)C2` [Embodiment 238, N-(3′-(5-((6-Acetyl-2,6-diazaspiro[3.3]heptan-2-yl)methyl)-6-methoxypyridin-2-yl)-2,2′-dichloro-[1,1′-biphenyl]-3-yl)-1-ethyl-5-methyl-4,5,6,7-tetrahydro-1H-imidazo[4,5-c]pyridine-2-carboxamide]: the ΔTm at 10 µM at human PD-L1 protein (setting [2]) was found to be 10.8 °C. Besides, the IC50 on human PD-1/PD-L1 binding was found to be 4.1 nM. Moreover, the Emax in assay [1] came to 95%.

On to `CCn1c(C(=O)Nc2cccc(-c3cccc(-c4ccc(CN5CC6(COC6)C5)c(OC)n4)c3Cl)c2Cl)nc2c1CCN(C)C2` [Embodiment 237, N-(3′-(5-((2-Oxa-6-azaspiro[3.3]heptan-6-yl)methyl)-6-methoxypyridin-2-yl)-2,2′-dichloro-[1,1′-biphenyl]-3-yl)-1-ethyl-5-methyl-4,5,6,7-tetrahydro-1H-imidazo[4,5-c]pyridine-2-carboxamide], for which the ΔTm at 10 µM at human PD-L1 protein (setting [2]) came to 11.6 °C. Further, on human PD-1/PD-L1 binding, the IC50 was determined as 5.2 nM. For the same molecule, the Emax in assay [1] was determined as 94%.

Take `COc1nc(-c2cccc(-c3cccc(NC(=O)c4nc5c(n4C)CCN(C)C5)c3Cl)c2Cl)ccc1CNC[C@@H](C)O` [Embodiment 128, (R)—N-(2,2′-Dichloro-3′-(5-(((2-hydroxypropyl)amino)methyl)-6-methoxypyridin-2-yl)-[1,1′-biphenyl]-3-yl)-1,5-dimethyl-4,5,6,7-tetrahydro-1H-imidazo[4,5-c]pyridine-2-carboxamide]: at human PD-L1 protein (setting [2]), the ΔTm at 10 µM was found to be 16.8 °C. Also, at human PD-1/PD-L1 binding, the IC50 worked out at 6.5 nM. Also, in assay [1], the Emax turned out to be 98% and the IC50 was determined as 0.6 nM.

With `COc1nc(-c2cccc(-c3cccc(NC(=O)c4nc5c(n4C)CCN(C)C5)c3Cl)c2Cl)ccc1CNC1CN(C(C)=O)C1` [Embodiment 179, N-(3′-(5-(((1-Acetylazetidin-3-yl)amino)methyl)-6-methoxypyridin-2-yl)-2,2′-dichloro-[1,1′-biphenyl]-3-yl)-1,5-dimethyl-4,5,6,7-tetrahydro-1H-imidazo[4,5-c]pyridine-2-carboxamide], on human PD-L1 protein (setting [2]), the shift in melting temperature (ΔTm) at 10 µM was 12.3 °C. Moreover, on human PD-1/PD-L1 binding, the IC50 came out at 7.9 nM. In assay [1], the Emax was 96%.

As for `COc1nc(-c2cccc(-c3cccc(NC(=O)c4nc5c(n4C)CCN(C)C5)c3Cl)c2Cl)ccc1CN1CC[C@H]1C(=O)O` [Embodiment 171, (S)-1-((6-(2,2′-Dichloro-3′-(1,5-dimethyl-4,5,6,7-tetrahydro-1H-imidazo[4,5-c]pyridine-2-carboxamido)-[1,1′-biphenyl]-3-yl)-2-methoxypyridin-3-yl)methyl)azetidine-2-carboxylic acid], the ΔTm at 10 µM at human PD-L1 protein was 10.3 °C. At human PD-1/PD-L1 binding, the IC50 amounted to 0.9 nM. In addition, the Emax in assay [1] was determined as 93%.

In the case of `COc1nc(-c2cccc(-c3cccc(NC(=O)c4nc5c(n4C)CCN(C)C5)c3Cl)c2Cl)ncc1CN[C@H]1CCOC[C@@H]1O` (relative stereo) [Embodiment 228, N-(2,2′-Dichloro-3′-(5-(((trans-3-hydroxytetrahydro-2H-pyran-4-yl)amino)methyl)-4-methoxypyrimidin-2-yl)-[1,1′-biphenyl]-3-yl)-1,5-dimethyl-4,5,6,7-tetrahydro-1H-imidazo[4,5-c]pyridine-2-carboxamide], on human PD-L1 protein (setting [2]), the ΔTm at 10 µM was 11.6 °C. Further, at human PD-1/PD-L1 binding, the IC50 is 4.2 nM. Moreover, the Emax in assay [1] stood at 95%.

As for `COc1nc(-c2cccc(-c3cccc(NC(=O)c4nc5c(n4C)CCN(C)C5)c3Cl)c2Cl)ccc1CN1CC2(C1)CN(C(=O)C(F)F)C2` [Embodiment 190, N-(2,2′-Dichloro-3′-(5-((6-(2,2-difluoroacetyl)-2,6-diazaspiro[3.3]heptan-2-yl)methyl)-6-methoxypyridin-2-yl)-[1,1′-biphenyl]-3-yl)-1,5-dimethyl-4,5,6,7-tetrahydro-1H-imidazo[4,5-c]pyridine-2-carboxamide], the ΔTm at 10 µM on human PD-L1 protein (setting [2]) came to 14 °C. Further, the results for the IC50 (at human PD-1/PD-L1 binding; in assay [1]) were 8.5 nM and 0.8 nM, respectively. For the same molecule, the Emax in assay [1] stood at 97%.

On to `COc1nc(-c2cccc(-c3cccc(NC(=O)c4nc5c(n4C)CCN(C)C5)c3Cl)c2Cl)ccc1CN1CC2(CCCO2)C1` [Embodiment 125, N-(3′-(5-((5-Oxa-2-azaspiro[3.4]octan-2-yl)methyl)-6-methoxypyridin-2-yl)-2,2′-dichloro-[1,1′-biphenyl]-3-yl)-1,5-dimethyl-4,5,6,7-tetrahydro-1H-imidazo[4,5-c]pyridine-2-carboxamide], for which the ΔTm at 10 µM at human PD-L1 protein is 15.6 °C. In addition, the IC50 at human PD-1/PD-L1 binding was determined as 8.4 nM. Besides, in assay [1], the Emax stood at 96% and the IC50 worked out at 0.7 nM.

Consider `COc1cc(C(=O)Nc2cccc(-c3cccc(NC(=O)c4nc5c(n4C)CCN(C)C5)c3Cl)c2C)ncc1CN[C@@H]1CONC1=O` [Embodiment 96, (R)—N-(2-Chloro-3′-(4-methoxy-5-(((3-carbonylisoxazolidin-4-yl)amino)methyl)picolinamido)-2′-methyl-[1,1′-biphenyl]-3-yl)-1,5-dimethyl-4,5,6,7-tetrahydro-1H-imidazo[4,5-c]pyridine-2-carboxamide], for which the ΔTm at 10 µM on human PD-L1 protein (setting [2]) came to 10.5 °C. Moreover, the IC50 at human PD-1/PD-L1 binding was found to be 2.3 nM.

In the case of `COc1nc(-c2cccc(-c3cccc(NC(=O)c4nc5c(n4C)CCN(C)C5)c3Cl)c2Cl)ccc1CN1CCC(C)(C#N)CC1` [Embodiment 212, N-(2,2′-Dichloro-3′-(5-((4-cyano-4-methylpiperidin-1-yl)methyl)-6-methoxypyridin-2-yl)-[1,1′-biphenyl]-3-yl)-1,5-dimethyl-4,5,6,7-tetrahydro-1H-imidazo[4,5-c]pyridine-2-carboxamide], the ΔTm at 10 µM at human PD-L1 protein (setting [2]) amounted to 14.9 °C. In assay [1], the Emax was 94% and the IC50 turned out to be 11.6 nM.
